Data published in patent US20230181564A1, “Potent Tetrahydroquinolone Eliminates Apicomplexan Parasites” (The University of Chicago, priority 2020, published 2023).

What was measured:
[1] = Metabolic stability in human liver microsomes; assay type: in vitro ADME
Experimental: PBS Sol/Toxicity pH7.4 refers to solubility of the compound in Phosphate Buffered Saline (PBS) at pH7.4. […] Parasites were RH-YFP expressing tachyzoites (Tachy) and EGS (Brady) strains. Studies of effects of inhibitors on HFF or on T.gondii tachyzoites were performed with triplicate wells in at least two biological replicate experiments. Studies of effects on bradyzoites were performed at least twice in at least two biological replicate experiments. Compounds with much less inhibition of mammalian than T. gondii cytochrome bc in the saffarine enzyme assay (indicated by **) provide potential to further develop compounds, if unanticipated toxicity occurs from JAG21.
Structure Activity Relationship (SAR) and comparison of effect on T.gondii and HFF enzyme activity. […] The MDCK-MDR1 Permeability Assay was also performed. […] These were measured by Chem Partners.

[2] = tested on: T. gondii mitochondrial membrane potential (cytochrome bc); assay: Mitochondrial membrane potential by the safranine method (T. gondii, compared with HFF); assay type: cell-based, Toxoplasma gondii; conditions: permeabilized tachyzoites, safranin O
Experimental: T.gondii and HFF Mitochondrial Membrane Potential Measurements—the mitochondrial membrane potential was measured by the safranine method according to Vercesi et al, 1998). Freshly egressed T. gondii tachyzoites were filtered and washed twice with intracellular buffer (125 mM sucrose, 65 mM KCl, 10 mM HEPES-KOH buffer, pH 7.2, 1 mM MgCl2 and 2.5 mM potassium phosphate). After washing, the parasites were resuspended in the same buffer at 10^9/ml. An aliquot of 50 μL of this suspension was added to a cuvette containing Safranin 0, 2.5 μM and Succinate 1 mM in final volume of 2 mL of the intracellular buffer. The fluorescence was measured with a Hitachi 7000 spectrofluorometer with setting Ex. 495/Em. 586. Once the baseline fluorescence is testable, 30 μM digitonin was added to permeabilize the parasites. 85 seconds after permeabilization, the THQ derivatives, dissolved in DMSO, were added. 5 μM of FCCP (Carbonyl cyanide-4-(trifluoromethoxy) phenylhydrazone) was used as an uncoupler reference for calculations and its effect was considered 100%. Similar conditions for measuring the mitochondrial potential of mammalian cells were used with the following changes: the mammalian cells were re-suspended at 10^8/ml. 50 μl of mammalian cells was also used for each run in a cuvette with […]. The substrate used for mammalian cells was 5 mM glutamate and 5 mM malate. A higher concentration of digitonin (50 μM) was used to permeabilize the mammalian cells. The compounds were added at about 400 seconds after permeabilization. Each experiment was repeated at least three times in duplicates. Statistical analysis, unpaired student t test, was performed using GraphPad Prism 8.0 (GraphPad Software, Inc., San Diego, Calif.).
Mitochondrial membrane potential measurements were performed with permeabilized T.gondii tachyzoites in suspension using safranin O, which loads into polarized membranes. T. gondii tachyzoites were permeabilized with digitonin to allow the mitochondrial substrate succinate to cross the membrane and energize the mitochondrion. The fluorescence of safranin O, which loads into energized mitochondria was used to measure the membrane potential. The energized state of the mitochondrion is observed by a decrease in fluorescence (FIGS. 3A,C,E). Trifluoromethoxy carbonylcyanide phenylhydrazone (FCCP) was used to depolarize the membrane, which causes the fluorescence to go up as shown in FIG. 3A. JAG21 depolarized the membrane potential even at concentrations as low as 2 nM (FIG. 3C,D). JAG21 and Atovaquone had similar effects on the mitochondrial membrane potential (FIG. 3D). […] The effect of these THQ compounds against the T. gondii mitochondrial membrane potential was greater than the effect on the human foreskin fibroblast membrane potential (FIG. 3E,F). […]

[3] = tested on: T. gondii (Prugneaud strain expressing luciferase) tachyzoites; assay: Acute infection with Prugneaud luciferase tachyzoites in Balb/C mice (IVIS, brain cysts); assay type: in vivo, Toxoplasma gondii
Experimental: IVIS. Balb/C mice were infected intraperitoneally (IP) with 20×10^3 T. gondii (Prugneaud strain expressing luciferase) tachyzoites. Treatment began 2 hours later with JAG21 (5 mg/kg) which was dissolved in DMSO, administered IP in a total volume of 0.05 ml. Mice were imaged every second day starting on day 4 post infection using an IVIS Spectrum (Caliper Life Sciences) for […], with medium binning, 20 minutes post injection with 150 mg/kg of D-luciferin potassium salt solution.
Brain cysts. Brain cysts were searched for in paraffin imbedded tissue of the surviving Prugneaud strain infected treated Balb/C mice in the IVIS study, 30 days after infection which was 16 days after treatment had been discontinued. All treated mice had survived. There were no surviving untreated mice in those experiments.

[4] = tested on: T. gondii ΔRPS13; assay: ΔRPS13 infection of interferon receptor knockout mice; assay type: in vivo, Toxoplasma gondii; conditions: 100,000 ΔRPS13; TAF day -1, JAG21 14 days, then tetracycline; vs either alone; not durable
Excerpt: RPS13 Δ In vivo. This G1 arrested parasite persists in tissue culture for prolonged times in the absence of tetracycline (Hutson et al 2010), but in immune competent mice it cannot be rescued with teteracycline, or LNAME (L-N^G-Nitro arginine methyl ester, an analog of arginine) used as an antagonist of nitric oxide synthase (NOS) that inhibits NO production, or both together (Hutson et al. 2010).
In pilot studies, herein, interferon α receptor knockout mice that were not treated were observed following infection. At 7 and at 14 days following infection, spleen and liver were removed and immune peroxidase stained. At 14 days a group of mice were treated with anhydrotetracycline and when a subset of these mice died their spleen and liver were removed and immune peroxidase stained.
As in the pilot studies, this RPS13 Δ parasite also was used to infect interferon α receptor knockout mice in a treatment study. In this separate study, groups of mice were infected with RPS13 Δ. […] At the time they appeared to have substantial illness or at the termination of the experiment they were euthanized, tissues fixed in formalin and stained with hematoxylin and eosin or immunoperoxidase stained and parasite burden was assessed.

Cc1[nH]c2c(c(=O)c1-c1ccc(Oc3ccc(OC(F)(F)F)cc3)cc1)CCCC2 [JAG021, 2-methyl-3-(4-(4-(trifluoromethoxy)phenoxy)phenyl)-5,6,7,8-tetrahydroquinolin-4-one]
Remaining in human liver microsomes ([1]; after 45 minutes): > 99% | half-life ([1]; predicted half-life in human liver microsomes, unit in cell, read-out: T1/2 (H)): > 168 h | Concentration depolarizing the T. gondii mitochondrial membrane potential [2]: ≤ 2 nM | Luciferase tachyzoites in luminescence studies ([3]; 5 mg/kg/day IP): eliminates illness and T. gondii Type II Prugneaud luciferase tachyzoites completely | Cysts in brains ([3]; 5 mg/kg/day for 14 days from start of infection, brains evaluated at 30 days): no cysts being found | Survival of infected mice ([3]; Balb/C mice, JAG21 5 mg/kg IP for 14 days): 100% | Survival time, JAG21 combined with tafenoquine [4]: improved time of survival
